Source: PubChem BioAssay (NCI)
“And” between values parts separate entries of the source, which are not always exact repeats. Equal entries are not always repeated.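 The compound was tested at five concentrations on cells cultured in 96-well plates, with a 48-hour exposure period. Definition used: TGI = concentration required for complete inhibition of growth.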

Experiments:
Assay in all cases: growth of human tumour cells (NCI), 48 h
CAKI-1 renal = tested on: CAKI-1 renal
COLO 205 colon = tested on: COLO 205 colon
DU-145 prostate = tested on: DU-145 prostate
HOP-92 NSCLC = tested on: HOP-92 NSCLC
HT29 colon = tested on: HT29 colon
K-562 leukemia = tested on: K-562 leukemia
NCI-H522 lung = tested on: NCI-H522 lung
RPMI-8226 leukemia = tested on: RPMI-8226 leukemia
SF-295 CNS = tested on: SF-295 CNS
SN12C renal = tested on: SN12C renal
U251 CNS = tested on: U251 CNS

Row | SMILES | TGI (CAKI-1 renal) [µM] | TGI (COLO 205 colon) [µM] | TGI (DU-145 prostate) [µM] | TGI (HOP-92 NSCLC) [µM] | TGI (HT29 colon) [µM] | TGI (K-562 leukemia) [µM] | TGI (NCI-H522 lung) [µM] | TGI (RPMI-8226 leukemia) | TGI (SF-295 CNS) [µM] | TGI (SN12C renal) [µM] | TGI (U251 CNS) [µM]
1 | Cc1c(C(=O)N2CCN(c3ccc([N+](=O)[O-])cc3)CC2)[n+](=O)c2cc(Cl)c(Cl)cc2n1[O-] | 64.3 | > 100 | 43.9 | 34.4 | 90.5 | > 100 | 32.7 | 63.4 µM | 34.2 | 38.2 | 61.5
2 | NCCCn1c2ccccc2c2c3c(c4c(c21)CCC(O)CC4)C(=O)NC3=O (stereo unspecified) | 16.6 | – | 14.1 | 12.9 | 4.99 | 8.5 | 13.2 | 14.6 µM | 15.6 | 13.6 | 13.1
3 | O=C(CN1CCN(Cc2ccccc2)CC1)N1CCCn2c1nc1ccccc1c2=O | > 100 | > 100 | > 100 | 52.5 | > 100 | > 100 | > 100 | > 100 µM | > 100 | > 100 | > 100
4 | CCCCc1c(C(=O)OC(C)(C)C)cc(C#Cc2cc(C(=O)OC(C)(C)C)c(CCCC)c(C(=O)OC(C)(C)C)c2)cc1C(=O)OC(C)(C)C | > 100 | > 100 | > 100 | > 100 | – | – | > 100 | > 100 µM | > 100 | > 100 | > 100
5 | Cc1ccc(OCC2OC(n3cnc4nc(Cl)nc(Cl)c43)CC2Oc2ccc(C)cc2)cc1 (stereo unspecified) | 9.75 | 27.6 | 27.2 | 9.88 | 20.4 | 4.83 | 4.31 | 9.35 µM | 30.6 | 20.5 | 55.5
6 | CC1(C)[C@@H](Cn2cnc3c(N)ncnc32)CC[C@@]1(C)CO | > 100 | > 100 | > 100 | > 100 | > 100 | > 100 | > 100 | – | > 100 | > 100 | > 100
7 | CNc1ccc(-c2nc3cc(C)ccc3o2)cc1 | > 100 | > 100 | > 100 | > 100 | > 100 | > 100 | > 100 | > 100 µM | > 100 | > 100 | > 100
8 | Clc1ccc(Cc2nc3ccc(CCN4CCN(c5ccccc5)CC4)cc3[nH]2)cc1 | 38.6 | 15.3 | 44 | 73.8 | 22.5 | 30.6 | 28.4 | 54.5 µM | 26.5 | 33.8 | 26.5
9 | CN(C)c1ccc(/C=C2\N=C(NN)NC2=O)cc1 | > 100 | > 100 | > 100 | > 100 | 98.9 | > 100 | > 100 | > 100 µM | > 100 | > 100 | > 100
10 | O=C1NC(N/N=C\C(O)C(O)C(O)CO)=N/C1=C/c1ccc(Cl)cc1 (stereo unspecified) | > 100 | > 100 | > 100 | > 100 | > 100 | > 100 | > 100 | > 100 µM and 94.3 µM | > 100 | > 100 | > 100
